# Experimental data as given in patent US4535075A, “Dithiolane derivative, process for producing the same and use thereof” (Nihon Nohyaku Co., Ltd., priority 1982, dated 1985).
# How the values were obtained:
# [1] = test system: liver damage induced by α-naphthyl isothiocyanate (ANIT); assay: Protective effect on liver damage induced by ANIT (Method 1); type: in vivo, mice; conditions: 2 x 250 mg/kg p.o., ANIT 35 mg/kg p.o., 24 h
# Text: Protective effect on liver damage induced by α-naphthyl isothiocyanate (referred to as "ANIT", hereinafter).
# It is well known that experimental cholestasis is accomplished by administration with ANIT in mice and rats, and studied as a cholestasis model in human being.
# ANIT and CCl4 induce necrosis in the liver. ANIT causes it as small focci in perilobular parenchyna and CCl4 causes centrilobular parenchymal coagulation necrosis.
# From these information, the elevation of plasma GPT activity in these models are thought to have defferent characteristics.
# Test compounds, dissolved or suspended in olive oil or diethyleneglycol, were orally administered 2 times at intervals of 3 hrs to mice at the dose of 250 mg/kg. At 3 hrs after the second administration with test compounds, ANIT was administered orally at 35 mg/kg.
# Mice were sacrificed at 24 hrs after ANIT administration and blood samples were collected. The blood samples were centrifuged and plasma was obtained.
# Plasma GPT activity and alkaline phosphatase activity were determined by Reitman & Frankel's method and Bessey-Lowry's method, respectively. The activity was expressed with Karmen Unit and Bessey-Lowry Unit, respectively.
# [2] = test system: liver damage induced by carbon tetrachloride; assay: Protective (Controlling) effect on liver damage induced by carbon tetrachloride; type: in vivo, mice (dd strain); conditions: 250 mg/kg p.o., CCl4 0.05 ml/kg after 6 h, 24 h; for p-GPT: CCl4 alone >2,100; for Liver Damage Index: average of 5 mice, 0 Normal, 2 Slightly recognized, 4 Clearly observable damage, 6 Heavy damage, CCl4 alone 5.0
# Text: Protective (Controlling) Effect on liver damage induced by carbon tetrachloride.
# Carbon tetrachloride administration induces centrilobular necrosis of the liver associated with loss of diphosphopyridine nucleotide, hepatic glycogen, coenzyme A and increase in neutral fat. Release of several enzymes from the hepatocytes, and increases of enzyme activities in the plasma are recognized as the result of the damage of the liver.
# A suitable means for evaluating the degree induced by carbon tetrachloride or the degree of protection afforded by drugs is to study the plasma glutamic-pyruvic transaminase (p-GPT) activity. […]
# After 6 hours, carbon tetrachloride was administered orally 0.05 ml/kg.
# Animals were killed 24 hours after carbon tetrachloride administration, and the liver was grossly observed.
# The plasma was obtained by centrifugation. Activity of p-GPT were determined by the method of Reitman and Frankel and expressed in Karmen units.
# Score for liver damage index was as follows:
# 1 Each figure indicated average of 5 mice.
# [3] = Table 3-1, control 3.3, ANIT alone 5.3
# [4] = Table 3-1, control 7.4, ANIT alone 324.0
Structure (SMILES),"Alkaline phosphatase activity [1, 3] [B-L.V.]","p-GPT [1, 4] [K.U.]",p-GPT [2] [Karmen units],Liver Damage Index [2],"Alkaline phosphatase activity ([1]; Table 3-2, ANIT alone 5.3) [B-L.V.]","p-GPT ([1]; Table 3-2, ANIT alone >653.7) [K.U.]"
CCCCOC(=O)C(C(=O)OCCCC)=C1SC(O)C(O)S1 (stereo not shown) [Compound 4],3.3,26.8,18,0.0,–,–
CCC(C)OC(=O)C(C(=O)OC(C)CC)=C1SC(O)C(O)S1 (stereo not shown) [Compound 6],4.9,142.0,21,0.0,–,–
CC(C)(C)OC(=O)C(C(=O)OC(C)(C)C)=C1SC(O)C(O)S1 (stereo not shown) [Compound 7],–,–,90,0.0,3.5,422.8
CC(C)CCOC(=O)C(C(=O)OCCC(C)C)=C1SC(O)C(O)S1 (stereo not shown) [Compound 9],–,–,47,0.0,3.4,27.2
O=C(OC1CCCCC1)C(C(=O)OC1CCCCC1)=C1SC(O)C(O)S1 (stereo not shown) [Compound 10],–,–,72,0.0,4.9,363.7
O=C(OCc1ccccc1)C(C(=O)OCc1ccccc1)=C1SC(O)C(O)S1 (stereo not shown) [Compound 11],–,–,33,0.0,4.3,437.5
C#CCOC(=O)C(C(=O)OCC#C)=C1SC(O)C(O)S1 (stereo not shown) [Compound 13],–,–,30,0.0,4.5,265.6
COCCOC(=O)C(C(=O)OCCOC)=C1SC(O)C(O)S1 (stereo not shown) [Compound 14],–,–,56,0.2,3.1,11.5
CCOC(=O)C(C(=O)C(C)C)=C1SC2OC(=O)OC2S1 (stereo not shown) [Compound 102],–,–,48.5,1.2,–,–
CCCCC(=O)C(C(=O)OCC)=C1SC2OC(=O)OC2S1 (stereo not shown) [Compound 103],–,–,14.7,0,–,–
CCOC(=O)C(C(=O)CC(C)C)=C1SC2OC(=O)OC2S1 (stereo not shown) [Compound 104],–,–,17.6,0,–,–
CCCCCCC(=O)C(C(=O)OCC)=C1SC2OC(=O)OC2S1 (stereo not shown) [Compound 105],–,–,107.4,1.6,–,–
CCOC(=O)C(C(=O)Cc1ccccc1)=C1SC2OC(=O)OC2S1 (stereo not shown) [Compound 106],–,–,602.2,1.0,–,–
CCOC(=O)C(C(=O)OCC)=C1SC2OC(=S)OC2S1 (stereo not shown) [Compound 107],–,–,42.6,0.6,–,–
CCCOC(=O)C(C(=O)OCCC)=C1SC2OC(=S)OC2S1 (stereo not shown) [Compound 108],–,–,31.0,0,–,–
CC(C)OC(=O)C(C(=O)OC(C)C)=C1SC2OC(=S)OC2S1 (stereo not shown) [Compound 109],–,–,139.3,0.4,–,–
CC(C)COC(=O)C(C(=O)OCC(C)C)=C1SC2OC(=S)OC2S1 (stereo not shown) [Compound 110],–,–,554.7,1.2,–,–
CCC(C)OC(=O)C(C(=O)OC(C)CC)=C1SC2OC(=S)OC2S1 (stereo not shown) [Compound 111],–,–,18.6,0.8,–,–
"C=CCOC(=O)C(C(=O)OCC=C)=C1SC2OC(=S)OC2S1 (stereo not shown) [Compound 112, 7-bis(allyloxycarbonyl)methylene-3-thioxo-2,4-dioxa-6,8-dithiabicyclo[3,3,0]octane]",–,–,20.2,0.6,–,–
C#CCOC(=O)C(C(=O)OCC#C)=C1SC2OC(=S)OC2S1 (stereo not shown) [Compound 113],–,–,13.3,0.6,–,–
"CC(C)OC(=O)C(C(=O)OC(C)C)=C1SCC(O)S1 (stereo not shown) [Compound A, reference compound]",–,–,–,–,8.5,> 755.0
